Common to all, as to format: binding
The target of experiment [1] is T1, KRAS G12S (Homo sapiens, UniProt P01116, G12S).
T1 construct: made in house; host or cells: E. coli, e.g. BL21 (DE3)
Put plainly: HTRF assay of K-Ras G12S interaction with SOS1 (PPI-HTRF). As to conditions: 5 nM KRAS G12S, read-out: PPI-HTRF-5 nM KRAS G12S. From the text:
(§1) This assay can be also used to assess a selective inhibition or reduction of signaling output of a mutant Ras protein relative to a wildtype, or relative to a different mutant Ras protein. For example, the equilibrium interaction of wildtype Kras or K-Ras mutant (e.g., wildtype or a mutant thereof including those mentioned in Example 4) with SOS1 (e.g., hSOS1) can be assessed as a proxy or an indication for a subject compound's ability to bind and inhibit Ras protein. HTRF assay detects from (i) a fluorescence resonance energy transfer (FRET) donor (e.g., antiGST-Europium) that is bound to GST-tagged K-Ras mutant to (ii) a FRET acceptor (e.g., anti-6His-XL665) bound to a His-tagged hSOS1.
(§2) The assay buffer can contain ˜5 mM HEPES pH 7.4, ˜150 mM NaCl, ˜1 mM DTT, 0.05% BSA and 0.0025% (v/v) Igepal. A Ras working solution is prepared in an assay buffer containing typically a suitable amount of the protein construct (e.g., GST-tagged K-Ras mutant) and the FRET donor (e.g., antiGST-Eu(K) from Cisbio, France). A SOS1 working solution is prepared in an assay buffer containing suitable amount of the protein construct (e.g., His-hSOS1) and the FRET acceptor (e.g., anti-6His-XL665 from Cisbio, France). A suitable amount of the protein construct will depend on the range of activity or range of IC50 values being detected or under investigation. For detecting IC50 within a range of 500 nM, the protein constructs of the same range of molarity can be utilized. […] A fixed volume of DMSO with or without test compound is transferred into a 384-well plate. Ras working solution is added to all wells of the test plate. SOS1 working solution is added to all wells except for those that are subsequently filled the inhibitor control solution. Upon incubation for about 10 minutes or longer, the fluorescence is measured with a M1000Pro plate reader (Tecan) using HTRF detection (excitation 337 nm, emission 1: 620 nm, emission 2: 665 nm). Compounds are tested in duplicates at different concentrations (for example, 10 μM, 2.5 μM, 0.63 μM, 0.16 μM, 0.04 μM, 0.01 μM test compound). The ratiometric data (i.e., emission 2 divided by emission 1) is used to calculate IC50 values against Ras using GraphPad Prism (GraphPad software). Following this general procedure, samples were tested with or without a subject compound disclosed herein including compounds exemplified in Table 1 to assess their abilities to inhibit a mutant K-Ras relative to another mutant K-Ras or wildtype K-Ras. Signaling output measured in terms of IC50 values can be obtained, a ratio of IC50 against one mutant relative to another mutant can be calculated. For instance, a selective reduction of K-Ras G12D signaling output can be evidenced by a ratio greater than one. In particular, a selective reduction of K-Ras G12D signaling relative to K-Ras WT signaling is evidenced as the ratio of IC50 (against K-Ras WT) to IC50 (against K-Ras G12D) is greater than 1.
For orientation: Time-resolved FRET reads energy transfer from a long-lived donor to a nearby acceptor.

Experiment [2] has as its target T2, KRAS G12D (Homo sapiens, UniProt P01116, G12D).
T2 construct: made in house; host or cells: E. coli, e.g. BL21 (DE3)
Nature of the experiment: HTRF assay of K-Ras G12D interaction with SOS1 (PPI-HTRF). Particulars: HTRF, 5 nM KRAS G12D; read-out: PPI-HTRF-5 nM KRAS G12D.
From the text: as §1, §2

Experiment [3] deals with T3, KRAS WT (Homo sapiens, UniProt P01116).
T3 construct: made in house; host or cells: E. coli, e.g. BL21 (DE3)
Nature of the experiment: HTRF assay of wildtype K-Ras interaction with SOS1 (PPI-HTRF). Particulars: HTRF, 5 nM KRAS WT; read-out: PPI-HTRF-5 nM KRAS WT.
From the text: as §1, §2

SMILES strings stand for the structures. Bounds are passed on as bounds.

Experimental findings from patent publication US20240116951A1, “HETEROCYCLIC COMPOUNDS AND USES THEREOF” (Kumquat Biosciences Inc., priority 2022, published 2024) are described below.

T2 sequence (P01116 1-188 isoform P01116-2 G12D): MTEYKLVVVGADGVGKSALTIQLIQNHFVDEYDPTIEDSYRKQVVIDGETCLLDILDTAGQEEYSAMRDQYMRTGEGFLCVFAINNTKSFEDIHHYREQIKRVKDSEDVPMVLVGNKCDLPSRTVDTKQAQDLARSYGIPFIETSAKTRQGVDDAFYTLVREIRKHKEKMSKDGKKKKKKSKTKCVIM
T1 sequence (P01116 1-188 isoform P01116-2 G12S): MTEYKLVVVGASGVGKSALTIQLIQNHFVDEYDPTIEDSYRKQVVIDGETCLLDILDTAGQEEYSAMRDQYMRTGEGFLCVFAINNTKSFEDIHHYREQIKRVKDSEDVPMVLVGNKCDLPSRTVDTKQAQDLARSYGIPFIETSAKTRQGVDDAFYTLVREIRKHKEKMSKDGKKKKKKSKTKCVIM
T3 sequence (P01116 1-188 isoform P01116-2): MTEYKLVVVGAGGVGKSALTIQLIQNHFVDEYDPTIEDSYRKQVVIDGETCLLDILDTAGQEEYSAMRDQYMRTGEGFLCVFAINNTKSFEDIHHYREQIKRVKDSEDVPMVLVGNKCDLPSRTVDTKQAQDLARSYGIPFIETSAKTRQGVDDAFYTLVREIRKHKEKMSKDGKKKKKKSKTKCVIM

Consider `C#Cc1c(F)ccc2cc(O)cc(-c3ncc4c(N5CCC6(CCN6)C5)nc(OC[C@@]56CCCN5C[C@H](F)C6)nc4c3F)c12` (stereo partly drawn) [Compound 268, 5-ethynyl-6-fluoro-4-(8-fluoro-2-(((2R,7aS)-2-fluorotetrahydro-1H-pyrrolizin-7a(5H)-yl)methoxy)-4-(1,6-diazaspiro[3.4]octan-6-yl)pyrido[4,3-d]pyrimidin-7-yl)naphthalen-2-ol], for which the IC50 in experiment [1], in experiment [2] and in experiment [3] was below 5 µM throughout.
With `N#Cc1c(N)sc2c(F)ccc(-c3c(Cl)cc4c(N5CCC6(CC5)CCN6C(=O)[C@@H]5N[C@H]5C5CC5)nc(OC[C@@]56CCCN5C[C@H](F)C6)nc4c3F)c12` [Compound 262, 2-amino-4-(6-chloro-4-(1-((2R,3S)-3-cyclopropylaziridine-2-carbonyl)-1,7-diazaspiro[3.5]nonan-7-yl)-8-fluoro-2-(((2R,7aS)-2-fluorotetrahydro-1H-pyrrolizin-7a(5H)-yl)methoxy)quinazolin-7-yl)-7-fluorobenzo[b]thiophene-3-carbonitrile], the IC50 in experiment [1], in experiment [2] and in experiment [3] was below 5 µM each time.
`N#Cc1c(N)sc2c(F)ccc(-c3c(Cl)cc4c(N5CCCC6(CCCN6)C5)nc(OC[C@@]56CCCN5C[C@H](F)C6)nc4c3F)c12` (stereo partly drawn) [Compound 218, 2-amino-4-(6-chloro-8-fluoro-2-(((2R,7aS)-2-fluorotetrahydro-1H-pyrrolizin-7a(5H)-yl)methoxy)-4-(1,7-diazaspiro[4.5]decan-7-yl)quinazolin-7-yl)-7-fluorobenzo[b]thiophene-3-carbonitrile]: the IC50 in experiment [1], in experiment [2] and in experiment [3] was below 5 µM each time.
In the case of `Cc1ncn(C(=O)N2CC[C@@]23CCN(c2nc(OC[C@@]45CCCN4C[C@H](F)C5)nc4c(F)c(-c5ccc(F)c6sc(N)c(C#N)c56)c(Cl)cc24)C3)n1` (atropisomer, axis not shown; (aS)) [Compound 338, (R)-2-amino-4-(6-chloro-8-fluoro-2-(((2R,7aS)-2-fluorotetrahydro-1H-pyrrolizin-7a(5H)-yl)methoxy)-4-((R)-1-(3-methyl-1H-1,2,4-triazole-1-carbonyl)-1,6-diazaspiro[3.4]octan-6-yl)quinazolin-7-yl)-7-fluorobenzo[b]thiophene-3-carbonitrile], the IC50 in experiment [1], in experiment [2] and in experiment [3] was below 5 µM each time.
`CN1CCC[C@H]1COc1nc(N2CCC3(CC2)NC(=O)NC3=O)c2cc(Cl)c(-c3cccc4sc(N)nc34)c(F)c2n1` [Compound 249, 8-(7-(2-aminobenzo[d]thiazol-4-yl)-6-chloro-8-fluoro-2-(((S)-1-methylpyrrolidin-2-yl)methoxy)quinazolin-4-yl)-1,3,8-triazaspiro[4.5]decane-2,4-dione]: the IC50 in experiment [1], in experiment [2] and in experiment [3] was below 5 µM each time.
Turning to `C[C@H](Oc1nc(N2CCCC3(CCN3C(=O)c3ccnn3C)C2)c2cc(Cl)c(-c3ccc(F)c4sc(N)c(C#N)c34)c(F)c2n1)[C@@H]1CCCN1C` (stereo partly drawn) [Compound 282, 2-amino-4-(6-chloro-8-fluoro-4-(1-(1-methyl-1H-pyrazole-5-carbonyl)-1,6-diazaspiro[3.5]nonan-6-yl)-2-((S)-1-((S)-1-methylpyrrolidin-2-yl)ethoxy)quinazolin-7-yl)-7-fluorobenzo[b]thiophene-3-carbonitrile], the IC50 in experiment [1], in experiment [2] and in experiment [3] was below 5 µM throughout.
For the compound `C#Cc1c(F)ccc2cc(O)cc(-c3ncc4c(N5CCC6(CCN6)C5)nc(O[C@@H](C)[C@@H]5CCCN5C)nc4c3F)c12` (stereo partly drawn) [Compound 239, 5-ethynyl-6-fluoro-4-(8-fluoro-2-((S)-1-((S)-1-methylpyrrolidin-2-yl)ethoxy)-4-(1,6-diazaspiro[3.4]octan-6-yl)pyrido[4,3-d]pyrimidin-7-yl)naphthalen-2-ol], the IC50 in experiment [1] was below 5 µM; in experiment [2], above 5 µM; in experiment [3] it was below 5 µM.
`N#Cc1c(N)sc2c(F)ccc(-c3c(Cl)cc4c(N5CCCCC6(CCN6C(=O)n6cncn6)C5)nc(OC[C@@]56CCCN5C[C@H](F)C6)nc4c3F)c12` (stereo partly drawn) [Compound 350]: the IC50 in experiment [1], in experiment [2] and in experiment [3] was below 5 µM each time.
`Nc1nc2c(-c3c(Cl)cc4c(NC5CC6(CCN6)C5)nc(OC[C@@]56CCCN5C[C@H](F)C6)nc4c3F)ccc(F)c2s1` (stereo partly drawn) [Compound 230, 4-(4-((1-azaspiro[3.3]heptan-6-yl)amino)-6-chloro-8-fluoro-2-(((2R,7aS)-2-fluorotetrahydro-1H-pyrrolizin-7a(5H)-yl)methoxy)quinazolin-7-yl)-7-fluorobenzo[d]thiazol-2-amine]: the IC50 in experiment [1], in experiment [2] and in experiment [3] was below 5 µM each time.
On to `N#Cc1c(N)sc2c(F)ccc(-c3c(Cl)cc4c(N5CCC6(CCN6C(=O)n6nccc6C#N)C5)nc(OC[C@@]56CCCN5C[C@H](F)C6)nc4c3F)c12` (stereo partly drawn) [Compound 290, 1-(6-(7-(2-amino-3-cyano-7-fluorobenzo[b]thiophen-4-yl)-6-chloro-8-fluoro-2-(((2R,7aS)-2-fluorotetrahydro-1H-pyrrolizin-7a(5H)-yl)methoxy)quinazolin-4-yl)-1,6-diazaspiro[3.4]octane-1-carbonyl)-1H-pyrazole-5-carbonitrile], for which the IC50 in experiment [1], in experiment [2] and in experiment [3] was below 5 µM each time.
On to `Nc1nc2c(-c3c(Cl)cc4c(N5CCCC6(CCCN6)C5)nc(OC[C@@]56CCCN5C[C@H](F)C6)nc4c3F)ccc(F)c2s1` (stereo partly drawn) [Compound 219, 4-(6-chloro-8-fluoro-2-(((2R,7aS)-2-fluorotetrahydro-1H-pyrrolizin-7a(5H)-yl)methoxy)-4-(1,7-diazaspiro[4.5]decan-7-yl)quinazolin-7-yl)-7-fluorobenzo[d]thiazol-2-amine], for which the IC50 in experiment [1], in experiment [2] and in experiment [3] was below 5 µM in each case.
Take `N#Cc1c(N)sc2c(F)ccc(-c3c(Cl)cc4c(N5CCC6(C5)N(C(=O)C5CC5(F)F)CC6(F)F)nc(OC[C@@]56CCCN5C[C@H](F)C6)nc4c3F)c12` (stereo partly drawn) [Compound 228, 2-amino-4-(6-chloro-4-(1-(2,2-difluorocyclopropane-1-carbonyl)-3,3-difluoro-1,6-diazaspiro[3.4]octan-6-yl)-8-fluoro-2-(((2R,7aS)-2-fluorotetrahydro-1H-pyrrolizin-7a(5H)-yl)methoxy)quinazolin-7-yl)-7-fluorobenzo[b]thiophene-3-carbonitrile]: the IC50 in experiment [1], in experiment [2] and in experiment [3] was below 5 µM in each case.
Turning to `N#CCC(=O)N1CC[C@@]12CCN(c1nc(OC[C@@]34CCCN3C[C@H](F)C4)nc3c(F)c(-c4ccc(F)c5sc(N)c(C#N)c45)c(Cl)cc13)C2` [Compound 316], the IC50 in experiment [1], in experiment [2] and in experiment [3] was below 5 µM each time.
With `Cc1nc(C(C)C)nn1C(=O)N1CCC12CCN(c1nc(OC[C@@]34CCCN3C[C@H](F)C4)nc3c(F)c(-c4ccc(F)c5sc(N)c(C#N)c45)c(Cl)cc13)C2` (stereo partly drawn) [Compound 266, 2-amino-4-(6-chloro-8-fluoro-2-(((2R,7aS)-2-fluorotetrahydro-1H-pyrrolizin-7a(5H)-yl)methoxy)-4-(1-(3-isopropyl-5-methyl-1H-1,2,4-triazole-1-carbonyl)-1,6-diazaspiro[3.4]octan-6-yl)quinazolin-7-yl)-7-fluorobenzo[b]thiophene-3-carbonitrile], the IC50 in experiment [1], in experiment [2] and in experiment [3] was below 5 µM throughout.
